Common to all, as to test: MHK against further strains (Table 2)
What all share (type): cell-based

Assay [1] has as its system Staphylococcus aureus ATCC 29213. The conditions noted are these: Nr. 8 Staphylococcus aureus ATCC 29213; KBE/ml 6.60E+05. As to the method:
(§1) The tests were performed using the micro dilution method.
(§2) The determination of MIC values was performed according to the ninth edition of the Approved Standard M07-A9 (CLSI. Methods for Dilution Antimicrobial Susceptibility Tests for Bacteria That Grow Aerobically; Approved Standard—Ninth Edition. CLSI document M07-A9. Wayne, Pa.: Clinical and Laboratory Standards Institute; 2012.)

For assay [2], the system named is Escherichia coli 100-2-56. The following applies: Nr. 3 Escherichia coli 100-2-56, clinical isolate. How it is done:
as §1, §2

Assay [3] deals with Escherichia coli ATCC 25922. The conditions noted are these: Nr. 1 Escherichia coli ATCC 25922; KBE/ml 2.80E+05. As to the method:
as §1, §2

The test system of assay [4] is Acinetobacter baumannii PEG 10-57-24. The conditions noted are these: Nr. 24 Acinetobacter baumannii PEG 10-57-24, clinical isolate. As to the method:
as §1, §2

Assay [5] deals with Klebsiella pneumoniae PEG-10-48-8. The following applies: Nr. 12 Klebsiella pneumoniae PEG-10-48-8, clinical isolate. How it is done: as §1, §2
The test system of assay [6] is Enterococcus faecium PEG 13-17-59. The following applies: Nr. 29 Enterococcus faecium PEG 13-17-59, clinical isolate. How it is done: as §1, §2
For assay [7], the system named is Staphylococcus aureus PEG 13-71-26. The conditions noted are these: Nr. 27 Staphylococcus aureus PEG 13-71-26, clinical isolate. As to the method: as §1, §2
The subject of assay [8] is Enterobacter aerogenes 220-1-22. The conditions noted are these: Nr. 18 Enterobacter aerogenes 220-1-22, clinical isolate. How it is done:
as §1, §2

For assay [9], the system named is Klebsiella oxytoca PEG-10-75-18. The conditions noted are these: Nr. 15 Klebsiella oxytoca PEG-10-75-18, clinical isolate. As to the method: as §1, §2
Assay [10] has as its system Enterococcus faecium PEG 13-9-13. The conditions noted are these: Nr. 28 Enterococcus faecium PEG 13-9-13, clinical isolate. As to the method:
as §1, §2

Assay [11] deals with Staphylococcus aureus PEG 10-38-22. The conditions noted are these: Nr. 9 Staphylococcus aureus PEG 10-38-22, clinical isolate. How it is done: as §1, §2

`COc1c(NC(=O)c2ccc(NC(=O)c3ccc(NC(=O)[C@H](Cc4c[nH]cn4)NC(=O)c4ccc(NC(=O)/C(C)=C/c5ccc(O)cc5)cc4)cc3)c(OC)c2O)ccc(C(=O)O)c1O` [Compound 1, L-His-albicidin]: the MHK in assay [1] stood at 8 mg/L; in [2] it was 2 mg/L; in [3] it was 0.063 mg/L; in assay [4], 2 mg/L; in assay [5], 32 mg/L; in [6], 32 mg/L. In addition, the MHK in assay [7] was 4 mg/L; in assay [8], 32 mg/L; in [9] it was 32 mg/L; in [10] it was 32 mg/L; in assay [11], 32 mg/L.

In the case of `COc1c(NC(=O)c2ccc(NC(=O)c3ccc(NC(=O)[C@H](CN(C)C)NC(=O)c4ccc(NC(=O)/C(C)=C/c5ccc(O)cc5)cc4)cc3)c(OC)c2O)ccc(C(=O)O)c1O` [Compound 2, L-DMDAP-Albicidin], the MHK was 32 mg/L in [1]; 32 mg/L in [2]; 0.125 mg/L in assay [3]; 32 mg/L in assay [4]; 32 mg/L in assay [5]; 32 mg/L in [6]. The MHK in [7], in [8], in assay [9], in assay [10] and in assay [11] was 32 mg/L throughout.

Take `COc1c(NC(=O)c2ccc(NC(=O)c3ccc(NC(=O)C(Cc4c[nH]nn4)NC(=O)c4ccc(NC(=O)/C(C)=C/c5ccc(O)cc5)cc4)cc3)c(OC)c2O)ccc(C(=O)O)c1O` [Compound 3, L-Azahis-Albicidin]: the MHK amounted to 0.5 mg/L in assay [1]; 0.25 mg/L in [2]; 0.008 mg/L in assay [3]; 1 mg/L in assay [4]; 32 mg/L in assay [5]; 8 mg/L in assay [6]. For the same compound, the MHK in [7] worked out at 0.125 mg/L; in assay [8], 4 mg/L; in assay [9], 8 mg/L; in assay [10], 8 mg/L; in assay [11], 2 mg/L.

Consider `COc1c(NC(=O)c2ccc(NC(=O)c3ccc(NC(=O)[C@@H](CN(C)C)NC(=O)c4ccc(NC(=O)/C(C)=C/c5ccc(O)cc5)cc4)cc3)c(OC)c2O)ccc(C(=O)O)c1O` [Compound 16, D-DMDAP-Albicidin], for which the MHK in assay [1] amounted to 32 mg/L; in [2], 32 mg/L; in [3] it was 16 mg/L; in assay [4], 32 mg/L; in assay [5], 32 mg/L; in assay [6], 32 mg/L. In addition, the MHK in assay [7], in assay [8], in assay [9], in [10] and in assay [11] was 32 mg/L each time.

The values are drawn from patent US11225465B2, “Albicidin derivatives, their use and synthesis” (TECHNISCHE UNIVERSITÄT BERLIN, priority 2017, dated 2022).
